According to patent publication US20140328898A1, “Nano-Liposomal Formulations and Methods of Use” (CHILDREN'S NATIONAL MEDICAL CENTER, priority 2013, published 2014):

Assay: Size-dependent transdermal penetration of PEGylated and anionic liposomes through the stratum corneum of porcine ear tissue (Example 2), DiI fluorescence intensity profiles
Assay type: in vitro ADME, Yorkshire piglets
Conditions: free dye applied to the skin in liposome-free buffer (control)
From the text: For PEGylated liposomes, dimyristoylphosphatidylcholine (DMPC), cholesterol, and dipalmitoylphosphatidylethanolamine-PEG 2000 (PEG2000-PE) (Avanti Polar Lipids Inc., Alabaster, Ala.) were combined in chloroform (Mallinckrodt Baker Inc., Phillipsburg, N.J.) at a molar ratio of 70:25:5. For anionic liposomes, DMPC, cholesterol (both from Avanti), and anionic surfactant dihexadecyl phosphate (DCP) (Sigma Aldrich, St. Louis, Mo.) were mixed in chloroform (Mallinckrodt Baker Inc.) at a molar ratio of 50:40:10. The lipid mixtures were prepared in glass scintillation vials then stored in a vacuum desiccator for at least 24 hours for complete solvent removal. The desiccated lipid mixtures were re-dissolved in anhydrous ethanol (Sigma Aldrich) for a total lipid concentration of 40 mM. To assist in fluorescent imaging, a lipophilic membrane dye, 1,1′-dioctadecyl-3,3,3′,3′-tetramethylindocarbocyanine perchlorate (DiI-C18; DiI) (Life Technologies, Carlsbad, Calif.) was included into the lipid mixtures (1 wt %). […]
The microfluidic-generated liposomes contained lipophilic DiI in their bilayers and hydrophilic SF in their cores to enable fluorescence imaging of tissue penetration depth. […]

In the case of O=C([O-])c1ccccc1-c1c2ccc(=O)cc-2oc2cc([O-])ccc12.[Na+].[Na+] [free SF dye, sodium fluorescein salt], the “SF dye penetration beyond the SC (in words)” value was “no penetration beyond the SC was observed”.
